Measurements as given in the supplement of paper PMC10733146.

Columns and labels:
Assay in all cases: viability relative to DMSO control (fraction); higher = less drug effect (more viable cells)
Settings in all cases: 48 h
[1] = tested on: primary CLL patient cells (S031)
How it was run: (§1)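 Primary mononuclear tumour cells (Ficoll-isolated from blood or bone marrow, or processed lymph node; fresh or cryopreserved) were plated at 4 × 10^4 cells per well in 384-well plates with pre-plated compounds at five concentrations, one well each. Medium was RPMI-1640 with penicillin/streptomycin, L-glutamine and human serum, at 37 °C and 5% CO2 for 48 h. Viability was read as CellTiter-Glo luminescence relative to the median of 16 inner DMSO wells.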

[2] = tested on: primary B-PLL patient cells (S016)
How it was run: as §1

[3] = tested on: primary AML patient cells (S071)
How it was run: as §1

[4] = tested on: primary ALL patient cells (S088)
How it was run: as §1

[5] = tested on: primary DLBCL patient cells (S076)
How it was run: as §1

[6] = tested on: primary AML patient cells (S060)
How it was run: as §1

[7] = tested on: primary DLBCL patient cells (S082)
How it was run: as §1

[8] = tested on: primary AML patient cells (S085)
How it was run: as §1

[9] = tested on: primary DLBCL patient cells (S049)
How it was run: as §1

[10] = tested on: primary T-NHL patient cells (S058)
How it was run: as §1

[11] = tested on: primary AML patient cells (S007)
How it was run: as §1

[12] = tested on: primary AML patient cells (S019)
How it was run: as §1

[13] = tested on: primary AML patient cells (S011)
How it was run: as §1

[14] = tested on: primary FL patient cells (S087)
How it was run: as §1

[15] = tested on: primary AML patient cells (S091)
How it was run: as §1

[16] = tested on: primary AML patient cells (S037)
How it was run: as §1

[17] = tested on: primary AML patient cells (S089)
How it was run: as §1

[18] = tested on: primary MCL patient cells (S041)
How it was run: as §1

CC(C)c1cc(-c2n[nH]c(=O)n2-c2ccc3c(ccn3C)c2)c(O)cc1O [Ganetespib]
viability ([1]; 0.0032 µM): 0.998 | viability ([1]; 0.016 µM): 0.873 | viability ([1]; 0.08 µM): 0.324 | viability ([1]; 0.4 µM): 0.267 | viability ([1]; 2 µM): 0.256 | viability ([2]; 0.0032 µM): 1.03 | viability ([2]; 0.016 µM): 0.967 | viability ([2]; 0.08 µM): 0.569 | viability ([2]; 0.4 µM): 0.552 | viability ([2]; 2 µM): 0.514 | viability ([3]; 0.0032 µM): 0.892 | viability ([3]; 0.016 µM): 0.357 | viability ([3]; 0.08 µM): 0.142 | viability ([3]; 0.4 µM): 0.167 | viability ([3]; 2 µM): 0.164 | viability ([4]; 0.0032 µM): 0.823 | viability ([4]; 0.016 µM): 0.425 | viability ([4]; 0.08 µM): 0.274 | viability ([4]; 0.4 µM): 0.259 | viability ([4]; 2 µM): 0.267 | viability ([5]; 0.0032 µM): 1.12 | viability ([5]; 0.016 µM): 0.904 | viability ([5]; 0.08 µM): 0.467 | viability ([5]; 0.4 µM): 0.407 | viability ([5]; 2 µM): 0.396 | viability ([6]; 0.0032 µM): 0.97 | viability ([6]; 0.016 µM): 1.05 | viability ([6]; 0.08 µM): 0.154 | viability ([6]; 0.4 µM): 0.118 | viability ([6]; 2 µM): 0.107 | viability ([7]; 0.0032 µM): 1.02 | viability ([7]; 0.016 µM): 1.12 | viability ([7]; 0.08 µM): 1.09 | viability ([7]; 0.4 µM): 1.04 | viability ([7]; 2 µM): 1.02 | viability ([8]; 0.0032 µM): 0.973 | viability ([8]; 0.016 µM): 0.648 | viability ([8]; 0.08 µM): 0.195 | viability ([8]; 0.4 µM): 0.251 | viability ([8]; 2 µM): 0.264 | viability ([9]; 0.0032 µM): 0.955 | viability ([9]; 0.016 µM): 0.989 | viability ([9]; 0.08 µM): 0.888 | viability ([9]; 0.4 µM): 0.54 | viability ([9]; 2 µM): 0.537 | viability ([10]; 0.0032 µM): 1.01 | viability ([10]; 0.016 µM): 0.978 | viability ([10]; 0.08 µM): 0.943 | viability ([10]; 0.4 µM): 1.14 | viability ([10]; 2 µM): 1.12 | viability ([11]; 2 µM): 0.0928 | viability ([12]; 0.0032 µM): 0.923 | viability ([12]; 0.016 µM): 0.682 | viability ([12]; 0.08 µM): 0.411 | viability ([12]; 0.4 µM): 0.465 | viability ([12]; 2 µM): 0.444 | viability ([13]; 0.0032 µM): 1.13 | viability ([13]; 0.016 µM): 0.778 | viability ([13]; 0.08 µM): 0.624 | viability ([13]; 0.4 µM): 0.684 | viability ([13]; 2 µM): 0.644 | viability ([14]; 0.0032 µM): 1.01 | viability ([14]; 0.016 µM): 1.01 | viability ([14]; 0.08 µM): 0.853 | viability ([14]; 0.4 µM): 0.881 | viability ([14]; 2 µM): 0.848 | viability ([15]; 0.0032 µM): 0.926 | viability ([15]; 0.016 µM): 0.901 | viability ([15]; 0.08 µM): 0.364 | viability ([15]; 0.4 µM): 0.259 | viability ([15]; 2 µM): 0.26 | viability ([16]; 0.0032 µM): 0.976 | viability ([16]; 0.016 µM): 0.988 | viability ([16]; 0.08 µM): 0.947 | viability ([16]; 0.4 µM): 0.979 | viability ([16]; 2 µM): 0.937 | viability ([17]; 0.0032 µM): 0.692 | viability ([17]; 0.016 µM): 0.371 | viability ([17]; 0.08 µM): 0.182 | viability ([17]; 0.4 µM): 0.254 | viability ([17]; 2 µM): 0.215 | viability ([18]; 0.0032 µM): 0.98 | viability ([18]; 0.016 µM): 0.846 | viability ([18]; 0.08 µM): 0.533 | viability ([18]; 0.4 µM): 0.406 | viability ([18]; 2 µM): 0.404

O=C(Nc1nc2ccccc2n1CCN1CCOCC1)c1cccc([N+](=O)[O-])c1 [IRAK-1/4 INHIBITOR I]
viability ([1]; 0.016 µM): 0.897 | viability ([1]; 0.08 µM): 0.91 | viability ([1]; 0.4 µM): 0.906 | viability ([1]; 2 µM): 0.861 | viability ([1]; 10 µM): 0.877 | viability ([2]; 0.016 µM): 0.968 | viability ([2]; 0.08 µM): 1.05 | viability ([2]; 0.4 µM): 0.969 | viability ([2]; 2 µM): 0.937 | viability ([2]; 10 µM): 1.04 | viability ([3]; 0.016 µM): 0.925 | viability ([3]; 0.08 µM): 0.918 | viability ([3]; 0.4 µM): 0.815 | viability ([3]; 2 µM): 0.783 | viability ([3]; 10 µM): 0.636 | viability ([4]; 0.016 µM): 0.747 | viability ([4]; 0.08 µM): 0.862 | viability ([4]; 0.4 µM): 0.856 | viability ([4]; 2 µM): 0.826 | viability ([4]; 10 µM): 0.941 | viability ([5]; 0.016 µM): 0.94 | viability ([5]; 0.08 µM): 1.09 | viability ([5]; 0.4 µM): 1.01 | viability ([5]; 2 µM): 1 | viability ([5]; 10 µM): 1.11 | viability ([6]; 0.016 µM): 0.973 | viability ([6]; 0.08 µM): 1 | viability ([6]; 0.4 µM): 0.974 | viability ([6]; 2 µM): 1 | viability ([6]; 10 µM): 1.02 | viability ([7]; 0.016 µM): 0.863 | viability ([7]; 0.08 µM): 0.932 | viability ([7]; 0.4 µM): 0.926 | viability ([7]; 2 µM): 1.02 | viability ([7]; 10 µM): 1.07 | viability ([8]; 0.016 µM): 0.957 | viability ([8]; 0.08 µM): 0.985 | viability ([8]; 0.4 µM): 1.05 | viability ([8]; 2 µM): 1.04 | viability ([8]; 10 µM): 1.02 | viability ([9]; 0.016 µM): 0.936 | viability ([9]; 0.08 µM): 0.955 | viability ([9]; 0.4 µM): 0.834 | viability ([9]; 2 µM): 0.833 | viability ([9]; 10 µM): 0.821 | viability ([10]; 0.016 µM): 1.05 | viability ([10]; 0.08 µM): 1.25 | viability ([10]; 0.4 µM): 1.02 | viability ([10]; 2 µM): 1.07 | viability ([10]; 10 µM): 1.27 | viability ([11]; 0.016 µM): 1.01 | viability ([11]; 0.08 µM): 0.989 | viability ([11]; 0.4 µM): 0.788 | viability ([11]; 2 µM): 0.469 | viability ([11]; 10 µM): 0.292 | viability ([12]; 0.016 µM): 0.915 | viability ([12]; 0.08 µM): 1.04 | viability ([12]; 0.4 µM): 0.913 | viability ([12]; 2 µM): 0.867 | viability ([12]; 10 µM): 0.909 | viability ([13]; 0.016 µM): 0.949 | viability ([13]; 0.08 µM): 0.934 | viability ([13]; 0.4 µM): 0.972 | viability ([13]; 2 µM): 1.11 | viability ([13]; 10 µM): 0.878 | viability ([14]; 0.016 µM): 0.933 | viability ([14]; 0.08 µM): 1.02 | viability ([14]; 0.4 µM): 0.989 | viability ([14]; 2 µM): 0.994 | viability ([14]; 10 µM): 1.08 | viability ([15]; 0.016 µM): 0.911 | viability ([15]; 0.08 µM): 0.936 | viability ([15]; 0.4 µM): 0.951 | viability ([15]; 2 µM): 0.905 | viability ([15]; 10 µM): 0.798 | viability ([16]; 0.016 µM): 0.878 | viability ([16]; 0.08 µM): 0.933 | viability ([16]; 0.4 µM): 0.895 | viability ([16]; 2 µM): 0.885 | viability ([16]; 10 µM): 1.02 | viability ([17]; 0.016 µM): 0.772 | viability ([17]; 0.08 µM): 0.973 | viability ([17]; 0.4 µM): 0.849 | viability ([17]; 2 µM): 1 | viability ([17]; 10 µM): 0.872 | viability ([18]; 0.016 µM): 0.947 | viability ([18]; 0.08 µM): 1.1 | viability ([18]; 0.4 µM): 0.955 | viability ([18]; 2 µM): 0.981 | viability ([18]; 10 µM): 0.993
